“Also recorded” adds a separate entry of the source.
How the values were obtained:
[1] = Solubility of the starting glycopeptide antibiotic (nucleus) in methanol in the presence of the copper salt, with pH; assay type: physicochemical; conditions: stirred 15 min; for pH: pH after addition of glycopeptide nucleus (0.26 mmol) to copper salt in 50 mL methanol; for nucleus solubility in presence of salt: Glycopeptide nucleus (0.55 g, 0.26 mmol) added to copper salt (0.165 mmol) in 50 mL methanol
Method: (§1) The same copper salts were further evaluated for their solubility in methanol and for the solubility of the starting glycopeptide antibiotic in their presence. The procedure was as follows: the copper salt (0.165 mmol) was added to 50 mL methanol and stirred at ambient temperature for 15 min. Solubility data was recorded as well as the pH. […] Solubility and pH data was recorded.

[2] = Solubility of copper salts in methanol, with pH; assay type: physicochemical; conditions: for pH: pH of copper salt (0.165 mmol) in 50 mL methanol after 15 min stirring, before nucleus is added; for Salt Solubility in MeOH: copper salt (0.165 mmol) in 50 mL methanol, stirred at ambient temperature for 15 min
Method: as §1

| SMILES | pH [1] | pH [2] | nucleus solubility in presence of salt [1] | Salt Solubility in MeOH [2] |
| --- | --- | --- | --- | --- |
| CCCCC(CC)C(=O)[O-].CCCCC(CC)C(=O)[O-].[Cu+2] (centres unmarked) [Cu(2-ethylhexanoate)2] | ~6.7 | 6.5 | – | – |
| O=C([O-])C(F)(F)F.O=C([O-])C(F)(F)F.[Cu+2] [Cu(O2CCF3)2] | 6.2 | 4.4 | soluble, clear purple | soluble, clear lite blue |
| CC(=O)[O-].CC(=O)[O-].[Cu+2] [Cu(OAc)2] | ~6.7 | 6.5 | – | – |
| [Cu+2].[OH-].[OH-] [Cu(OH)2] | 7.0 | 6.2 | slightly, cloudy lite blue | nearly insoluble; also recorded: low, cloudy lite blue soln |
| O=C([O-])CCCC1CCCCC1.O=C([O-])CCCC1CCCCC1.[Cu+2] [Cu(cyclohexanebutyrate)2] | ~6.7 | 6.0 | complete dissolution; also recorded: soluble, clear purple | faint cloudiness, lite blue-green |
| [Br][Cu][Br] [CuBr2] | 5.9 | 2.8 | soluble, clear purple | soluble, clear yellow |
| [Cl][Cu][Cl] [CuCl2] | 6.6 | 3.2 | slightly, cloudy purple | soluble, clear colorless |
| [F][Cu][F] [CuF2] | 7.0 | 5.9 | slightly, cloudy pink | nearly insoluble; also recorded: low, cloudy white soln |
| O.O.O.O.O.O=S(=O)([O-])[O-].[Cu+2] [CuSO4·5H2O] | 6.2 | 3.7 | slightly, cloudy purple | soluble, clear colorless |
